Reference: patent US7241724B2, “Personal care compositions comprising alkyl phosphate surfactants and selected auxiliary surfactants” (priority 2005, dated 2007)

Tested on: Zein protein
Test: Zein solubilization test (mildness)
Experimental: • 1. Prepare a 5 wt. % aqueous solution of the surfactant. If the natural pH of the system differs from that desired, adjust by incremental addition of acid or base. • 2. Mix 4 grams of Zein protein in 40 grams of the surfactant solution. Allow the mixture to stand at room temperature for 24 hours with frequent vigorous shaking. • 3. Filter the supernatant of the Zein/surfactant mixture using a syringe filter with a 0.45 micron Nylon membrane. Dilute the filtered solution 100-fold with 2% SDS solution (i.e., 0.1 gram filtered solution diluted in 10 grams of 2% SDS solution). As a reference, also prepare a diluted surfactant solution by mixing 0.1 grams of 5 wt. % surfactant solution with 10 grams of 2% SDS solution. • 4. The Zein concentration is determined using a UV/VIS spectrophotometer operated in the range 200-350 nm at a scanning rate of 800 nm/min, using a 2% SDS solution as the background. […] The Zein solubility in the 5 wt. % surfactant solution is C, times the dilution factor.
[…] Zein and surfactant were contacted for 24 hours.
Zein tests reported in Table V were all conducted at 45° C. rather than at room temperature.

- Percent Zein Solubilized (Table I, pH 6.0, 5% total surfactant solutions, Zein and surfactant contacted 24 hours): 4.64%
- Percent Zein Solubilized (Table II, comparators at pH 6.0): 4.11%
- Percent Zein Solubilized (Table IV, C12 MAP blended with other carboxylic acids, pH 5.0): 3.52%
- Percent Zein Solubilized (Table V, C12 MAP blended with fatty alcohols, pH 5.0, conducted at 45° C.): 3.52%
- Percent Zein Solubilized (Table VI, negative controls, strong acid auxiliary agents, pH 5.0): 3.52%
- Percent Zein Solubilized (Table VII, C12 MAP acid 60/40 weight ratio with auxiliary, combined 5% in water, amino acid counterion to pH 5, listed as 42): 3.55%
- Percent Zein Solubilized (Table VII, C12 MAP acid 60/40 weight ratio with auxiliary, combined 5% in water, amino acid counterion to pH 5, listed as 46): 3.42%
Substance: Sodium lauryl ether sulfate [SLES]
